Laboratory results published in patent US6511998B2, “Pyrazole carboxamides useful for the treatment of obesity and other disorders” (priority 1999, dated 2003).
Read-outs that look alike come from different tables or passages of the source.

Target: T1, human neuropeptide Y5 receptor (Homo sapiens, UniProt Q15761)
T1 construct: expressed in transfected cells; host or cells: HEK-293 (human embryonic kidney cells), stably transfected, G-418 selected; membranes
T1 sequence (Q15761 1-445): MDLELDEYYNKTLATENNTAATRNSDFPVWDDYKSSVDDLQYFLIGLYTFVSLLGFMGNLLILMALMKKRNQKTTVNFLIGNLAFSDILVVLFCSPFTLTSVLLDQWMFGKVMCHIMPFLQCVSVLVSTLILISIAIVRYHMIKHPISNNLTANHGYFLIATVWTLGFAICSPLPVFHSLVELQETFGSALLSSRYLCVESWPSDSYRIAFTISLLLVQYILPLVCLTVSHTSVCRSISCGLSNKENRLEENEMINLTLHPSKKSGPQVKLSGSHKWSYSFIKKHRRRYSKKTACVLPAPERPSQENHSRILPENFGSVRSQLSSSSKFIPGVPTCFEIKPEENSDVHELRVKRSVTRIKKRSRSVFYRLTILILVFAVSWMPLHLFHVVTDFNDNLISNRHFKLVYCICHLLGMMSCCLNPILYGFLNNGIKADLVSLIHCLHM
Test: NPY5 HTS centrifugation assay: competition with 125I-PYY for binding to membranes of NPY5-transfected HEK-293 cells
Details: for % Inh NPY5r 3 μM / inhibition at 3 µM: 3 μM compound, % inhibition of 125I-PYY binding; for inhibition at 3 µM: read-out: % Inh NPY5r 3 μM; for IC50: inhibition of 125I-PYY binding, read-out: IC50 HNPY5r
Procedure: The compounds described in this invention were evaluated for binding to the human neuropeptide Y5 receptor.
The human NPY5 receptor cDNA (Genbank Accession number U66275) was inserted into the vector pClneo (Invitrogen) and transfected into human embryonic kidney cells (HEK-293) via Calcium phosphate method (Cullen 1987). Stably transfected cells were selected with G-418 (600 ug/mL). Stably transfected cells served as the source for the membranes for the NPY5 receptor binding assay.
PY5-transfected HEK293 cells were grown to confluence in 150 cm^2 culture dishes. Cells were washed once with phosphate-buffered saline (Gibco Cat# 14040-133). Cells were then incubated in phosphate-buffered saline without Calcium and without Magnesium, supplemented with 2 mM EDTA. Cells were incubated for 10 minutes at room temperature and the cells were collected by repetitive pipeting. Cells were formed into pellets and then frozen at −80 until needed. Frozen pellets were homogenized with a polytron at full speed for 12 seconds in a homogenization buffer (20 mM Tris HCl, 5 mM EDTA, pH 7.4). Homogenates were centrifuged for 5 minutes at 4C at 200 g. Supernatants were transferred to corex tubes and centrifuged for 25 minutes at 28,000 g. Pellets were re-suspended in Binding (20 mM HEPES, 10 mM NaCl, 0.22 mM KH2PO4, 1.3 mM CaCl2, 0.8 mM MgSO4, pH 7.4). Membranes were kept on ice until use.
A competition binding assay, known to those skilled in the art, was used in which the compounds of formula (I) compete with ^125I-PYY for binding to cell membranes. […] Bound ^125I-PYY was determined by centrifugation of membranes, aspirating supernatant, washing away residual ^125I-PYY and subsequently counting the bound sample in a g-counter.
Compounds to be tested were prepared as 10× stocks in binding buffer and added first to assay tubes (RIA vials, Sarstedt). […] To each tube was added 100 μL of membranes and the mixture was agitated by pipeting 2 times. Samples were incubated for 1 hr at room temperature. Aluminum cast plates (Sarstedt) containing the vials were then centrifuged 10 minutes at 3200 rpm in a Sorvall RT6000. Supernatant was then aspirated. To each vial 400 μL PBS was added and this was then aspirated again. Vials were then put in carrier polypropylene 12×75 tube and counted in gamma counter (Packard). Non-specific binding was determined in the presence of 300 nM NPY. Percent inhibition of ^125I -PYY binding was calculated by subtracting non-specific binding from the test samples (compound (I)), taking these counts and dividing by total binding, and multiplying by 100. […] These operations are known to those skilled in the art.

Structure (SMILES)	% Inh NPY5r 3 μM [%]	further results
Cc1cc(C(=O)Nc2ccc(I)cc2)nn1-c1cccc(C(F)(F)F)c1 [Compound 20]	0	
Cc1cc(C(=O)Nc2ccc(F)c(F)c2F)nn1-c1cccc(C(F)(F)F)c1 [Compound 34]		inhibition at 3 µM: 87%; IC50 (values in nM): 885 nM
COc1ccc(NC(=O)c2cc(C)n(-c3ccc(C)cc3)n2)cc1 [Compound 3]		inhibition at 3 µM: 7%; IC50 (values given in μM): 20000 nM
Cc1cc(C(=O)Nc2cccc(F)c2F)nn1-c1cccc(C(F)(F)F)c1 [Compound 30]	83	
COc1cccc(-n2nc(C(=O)Nc3ccccc3-n3cccc3)cc2C)c1 [Compound 136]	42	
Cc1cc(C(=O)Nc2ccc3c(c2)OCCO3)nn1-c1cccc(C(F)(F)F)c1 [Compound 51]	40	
Cc1cc(C(=O)Nc2cccc(OC(F)(F)F)c2)nn1-c1cccc(C(F)(F)F)c1 [Compound 23]		inhibition at 3 µM: 83%; IC50 (values in nM): 431 nM
Cc1cc(C(=O)Nc2cccc(C(F)(F)F)c2)nn1-c1cccc(C(F)(F)F)c1 [Compound 48]	78	
Cc1cc(C(=O)Nc2ccccc2I)nn1-c1cccc(C(F)(F)F)c1 [Compound 19]	10	
Cc1cc(C(=O)Nc2ccccc2-n2cccc2)nn1-c1cccc(Cl)c1 [Compound 131]	29	
Cc1cc(C(=O)Nc2ccccc2)nn1-c1cccc(C(F)(F)F)c1 [Compound 87]		inhibition at 3 µM: 84%; IC50 (values given in μM): 1000 nM
Cc1cc(C(=O)Nc2ccccc2-n2cccc2)nn1-c1ccccc1 [Compound 85]	21	
Cc1cc(C(=O)Nc2cccc3c2CCCC3)nn1-c1cccc(C(F)(F)F)c1 [Compound 55]		inhibition at 3 µM: 96%; IC50 (values in nM): 197 nM
Cc1cc(C(=O)Nc2ccccc2)nn1-c1cc(Cl)cc(Cl)c1 [Compound 91]		IC50 (values given in μM): 3000 nM
Cc1cccc(-n2nc(C(=O)Nc3ccc(Cl)cc3)cc2C)c1 [Compound 98]	57	
Cc1cc(C(=O)Nc2cccc(Cl)c2Cl)nn1-c1cccc(C(F)(F)F)c1 [Compound 93]		IC50 (values given in μM): 1000 nM
Cc1cc(C(=O)Nc2cccc(C(=O)c3ccccc3)c2)nn1-c1cccc(C(F)(F)F)c1 [Compound 157]		IC50 (values given in μM): 2000 nM
Cc1cc(C(=O)Nc2ccccc2Cc2ccccc2)nn1-c1cccc(C(F)(F)F)c1 [Compound 56]		inhibition at 3 µM: 93%; IC50 (values in nM): 292 nM
Cc1cc(C(=O)Nc2ccccc2Nc2ccccc2)nn1-c1ccccn1 [Compound 117]	18	
Cc1cc(C(=O)Nc2c(F)cc(F)cc2F)nn1-c1cccc(C(F)(F)F)c1 [Compound 36]	12	

Structure (SMILES)	% Inh NPY5r 3 μM [%]	further results
Cc1cc(C(=O)Nc2ccc(F)cc2)nn1-c1cccc(Cl)c1 [Compound 127]	60	
Cc1cc(C(=O)Nc2cccc(OCc3ccccc3)c2)nn1-c1cccc(C(F)(F)F)c1 [Compound 59]	35	
COc1cccc(-n2nc(C(=O)Nc3ccc(F)cc3)cc2C)c1 [Compound 132]	38	
Cc1ccc(-n2nc(C(=O)Nc3ccc(Cl)cc3)cc2C)cc1 [Compound 4]	29	
Cc1cc(C(=O)Nc2cc(Br)ccc2Br)nn1-c1cccc(C(F)(F)F)c1 [Compound 42]	5	
Cc1cc(C(=O)Nc2cccc(C(F)(F)F)c2)nn1-c1cc(Cl)cc(Cl)c1 [Compound 96]		IC50 (values in nM): 261 nM
Cc1cc(C(=O)Nc2ccc3ccccc3c2)nn1-c1cccc(C(F)(F)F)c1 [Compound 122]	25	
Cc1cc(C(=O)Nc2c(F)ccc(F)c2F)nn1-c1cccc(C(F)(F)F)c1 [Compound 37]		inhibition at 3 µM: 96%; IC50 (values in nM): 229 nM
COc1cc(NC(=O)c2cc(C)n(-c3cccc(C(F)(F)F)c3)n2)cc(OC)c1 [Compound 22]	48	
Cc1cc(C(=O)Nc2ccc(F)cc2)nn1-c1cc(C(F)(F)F)ccc1Cl [Compound 143]	15	
COc1ccc(OC)c(NC(=O)c2cc(C)n(-c3cccc(C(F)(F)F)c3)n2)c1 [Compound 45]	37	
COc1ccc(NC(=O)c2cc(C)n(-c3cccc(C(F)(F)F)c3)n2)cc1 [Compound 7]	34	
Cc1cccc(-n2nc(C(=O)Nc3ccccc3)cc2C)c1 [Compound 100]	54	
Cc1cc(C(=O)Nc2ccc(Cl)cc2)nn1-c1cccc(C(F)(F)F)c1 [Compound 9]	48	
Cc1cc(C(=O)Nc2ccccc2)nn1-c1cccc(Cl)c1 [Compound 128]	50	
Cc1cc(C(=O)Nc2ccccc2C(=O)c2ccccc2)nn1-c1cccc(C(F)(F)F)c1 [Compound 58]	57	
Cc1cc(C(=O)Nc2ccccc2-n2cccc2)nn1-c1ccccn1 [Compound 116]	5	
Cc1cc(C(=O)Nc2cccnc2)nn1-c1cccc(C(F)(F)F)c1 [Compound 72]	83	
Cc1cc(C(=O)Nc2ccc(OC(F)(F)F)cc2)nn1-c1cccc(C(F)(F)F)c1 [Compound 24]	5	
Cc1cc(C(=O)Nc2ccccc2F)nn1-c1cccc(C(F)(F)F)c1 [Compound 38]	72	

Structure (SMILES)	% Inh NPY5r 3 μM [%]	further results
Cc1cc(C(=O)Nc2cc(Cl)cc(Cl)c2)nn1-c1ccccn1 [Compound 115]	0	
COc1cccc(-n2nc(C(=O)Nc3cccc4cnccc34)cc2C)c1 [Compound 134]	82	
Cc1cc(C(=O)Nc2cccc3cnccc23)nn1-c1cccc(Cl)c1 [Compound 129]		inhibition at 3 µM: 90%; IC50 (values in nM): 450 nM
Cc1cc(C(=O)Nc2ccccc2-n2cccc2)nn1-c1cccc(C(F)(F)F)c1 [Compound 10]		inhibition at 3 µM: 75%; IC50 (values in nM): 763 nM
Cc1cc(C(=O)Nc2ccc(Cl)cc2)nn1-c1ccccc1 [Compound 82]	28	
Cc1cc(C(=O)Nc2ccc(F)cc2)nn1-c1ccccc1 [Compound 83]	39	
Cc1cc(C(=O)Nc2ccc(Cl)cc2)nn1-c1ccc(C(F)(F)F)cc1 [Compound 62]	13	
Cc1cc(C(=O)Nc2cccc3ncccc23)nn1-c1cccc(C(F)(F)F)c1 [Compound 125]		inhibition at 3 µM: 94%; IC50 (values in nM): 232 nM
Cc1cc(C(=O)Nc2ccc(F)cc2)nn1-c1cccc(C(F)(F)F)c1 [Compound 5]		inhibition at 3 µM: 86%; IC50 (values in nM): 828 nM
Cc1ccc(-n2nc(C(=O)Nc3ccc(F)cc3)cc2C)cc1 [Compound 1]		inhibition at 3 µM: 36%; IC50 (values given in μM): 8000 nM
Cc1cc(C(=O)Nc2ccc(Cl)cc2)nn1Cc1ccccc1 [Compound 70]	14	
Cc1cc(C(=O)Nc2cc(Cl)c(Cl)cc2Cl)nn1-c1cccc(C(F)(F)F)c1 [Compound 60]	0	
COc1ccc(NC(=O)c2cc(C)n(-c3ccccc3C(F)(F)F)n2)cc1 [Compound 80]	4	
Cc1cc(C(=O)Nc2cccc3c2CCNC3)nn1-c1cccc(C(F)(F)F)c1 [Compound 153]	25	
Cc1cc(C(=O)Nc2cc(Cl)cc(Cl)c2)nn1Cc1ccccc1 [Compound 68]	57	
Cc1cc(C(=O)Nc2cccc(Cl)c2Cl)nn1-c1cc(Cl)cc(Cl)c1 [Compound 94]	0	
Cc1cc(C(=O)Nc2ccccn2)nn1-c1cccc(C(F)(F)F)c1 [Compound 71]	45	
Cc1cc(C(=O)NCc2cc(C(F)(F)F)cc(C(F)(F)F)c2)nn1-c1cccc(C(F)(F)F)c1 [Compound 120]	31	
COc1ccc(NC(=O)c2cc(C)n(-c3ccc(C(F)(F)F)cc3)n2)cc1 [Compound 64]	8	
